Measured values from patent US10906873B2, “Substituted cyclic amides as herbicides” (FMC Corporation, priority 2015, dated 2021).

Experiments:
Assay type in all cases: in vivo
rice (Oryza sativa) = experiment: Test B flooded paddy test, rice; settings: Flood, 250 g ai/ha; scale of 0 to 100 where 0 is no effect and 100 is complete control; 13 to 15 d
Method in brief: (§1)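 Plants grown to the 2-leaf stage. At treatment, pots were flooded to 3 cm above the soil, compound was applied directly to the paddy water, and that depth was held throughout. After 13 to 15 d in the greenhouse, response was rated visually against controls on a 0 (no effect) to 100 (complete control) scale.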

[1] = system: sedge, umbrella (small-flower umbrella sedge, Cyperus difformis); experiment: Test B flooded paddy test, sedge, umbrella; settings: Flood, 250 g ai/ha; scale of 0 to 100 where 0 is no effect and 100 is complete control; 13 to 15 d
Method in brief: as §1

[2] = system: pigweed (Amaranthus retroflexus); experiment: Test A postemergence, pigweed; settings: 0 to 100 scale
Method in brief: (§2)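 Visual injury rating, 0–100 scale (100 = complete control), ~10 d after treatment, relative to untreated controls. Greenhouse pots, loam soil/sand; compound in solvent mix with surfactant applied as soil spray preemergence or foliar postemergence at 1–2-leaf stage.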

kochia (Kochia scoparia) [3] = experiment: Test A postemergence, kochia; settings: 0 to 100 scale
Method in brief: as §2

[4] = system: blackgrass (Alopecurus myosuroides); experiment: Test A postemergence, blackgrass; settings: 0 to 100 scale
Method in brief: as §2

[5] = system: barnyardgrass (Echinochloa crus-galli); experiment: Test A postemergence, barnyardgrass; settings: 0 to 100 scale
Method in brief: as §2

[6] = system: barnyardgrass (Echinochloa crus-galli); experiment: Test B flooded paddy test, barnyardgrass; settings: Flood, 250 g ai/ha; scale of 0 to 100 where 0 is no effect and 100 is complete control; 13 to 15 d
Method in brief: as §1

[7] = system: wheat (Triticum aestivum); experiment: Test A postemergence, wheat; settings: 0 to 100 scale
Method in brief: as §2

[8] = system: galium (catchweed bedstraw, Galium aparine); experiment: Test A postemergence, galium; settings: 0 to 100 scale
Method in brief: as §2

[9] = system: ryegrass, It. (Italian ryegrass, Lolium multiflorum); experiment: Test A postemergence, ryegrass, It.; settings: 0 to 100 scale
Method in brief: as §2

[10] = system: pigweed (Amaranthus retroflexus); experiment: Test A preemergence, pigweed; settings: 0 to 100 scale
Method in brief: as §2

[11] = system: barnyardgrass (Echinochloa crus-galli); experiment: Test A preemergence, barnyardgrass; settings: 0 to 100 scale
Method in brief: as §2

[12] = system: ragweed (common ragweed, Ambrosia elatior); experiment: Test A preemergence, ragweed; settings: 0 to 100 scale
Method in brief: as §2

corn (Zea mays) = experiment: Test A postemergence, corn; settings: 0 to 100 scale
Method in brief: as §2

[13] = system: ryegrass, It. (Italian ryegrass, Lolium multiflorum); experiment: Test A preemergence, ryegrass, It.; settings: 0 to 100 scale
Method in brief: as §2

[14] = system: ragweed (common ragweed, Ambrosia elatior); experiment: Test A postemergence, ragweed; settings: 0 to 100 scale
Method in brief: as §2

[15] = system: foxtail, giant (giant foxtail, Setaria faberii); experiment: Test A postemergence, foxtail, giant; settings: 0 to 100 scale
Method in brief: as §2

[16] = system: foxtail, giant (giant foxtail, Setaria faberii); experiment: Test A preemergence, foxtail, giant; settings: 0 to 100 scale
Method in brief: as §2

[17] = system: ducksalad (Heteranthera limosa); experiment: Test B flooded paddy test, ducksalad; settings: Flood, 250 g ai/ha; scale of 0 to 100 where 0 is no effect and 100 is complete control; 13 to 15 d
Method in brief: as §1

kochia (Kochia scoparia) [18] = experiment: Test A preemergence, kochia; settings: 0 to 100 scale
Method in brief: as §2

O=C1NCC(/C=C/c2ccccc2F)C1C(=O)Nc1ccccc1F (stereo not drawn) [Compound 34]
Plant response rating, Rice (rice (Oryza sativa)): 15 | Plant response rating, Sedge, Umbrella [1]: 60 | Plant response rating, Pigweed ([2]; 125 g ai/ha): 0 | Plant response rating, Pigweed ([2]; 500 g ai/ha): 0 | Plant response rating, Kochia (kochia (Kochia scoparia) [3]; 125 g ai/ha): 0 | Plant response rating, Kochia (kochia (Kochia scoparia) [3]; 500 g ai/ha): 0 | Plant response rating, Blackgrass ([4]; 125 g ai/ha): 0 | Plant response rating, Blackgrass ([4]; 500 g ai/ha): 0 | Plant response rating, Barnyardgrass ([5]; 125 g ai/ha): 0 | Plant response rating, Barnyardgrass ([5]; 500 g ai/ha): 60 | Plant response rating, Barnyardgrass [6]: 0 | Plant response rating, Wheat ([7]; 125 g ai/ha): 0 | Plant response rating, Wheat ([7]; 500 g ai/ha): 20 | Plant response rating, Galium ([8]; 125 g ai/ha): 0 | Plant response rating, Galium ([8]; 500 g ai/ha): 0 | Plant response rating, Ryegrass, It. ([9]; 125 g ai/ha): 0 | Plant response rating, Ryegrass, It. ([9]; 500 g ai/ha): 0 | Plant response rating, Pigweed ([10]; 125 g ai/ha): 80 | Plant response rating, Pigweed ([10]; 500 g ai/ha): 100 | Plant response rating, Barnyardgrass ([11]; 125 g ai/ha): 20 | Plant response rating, Barnyardgrass ([11]; 500 g ai/ha): 80 | Plant response rating, Ragweed ([12]; 125 g ai/ha): 0 | Plant response rating, Ragweed ([12]; 500 g ai/ha): 0 | Plant response rating, Corn (corn (Zea mays); 125 g ai/ha): 0 | Plant response rating, Corn (corn (Zea mays); 500 g ai/ha): 0 | Plant response rating, Ryegrass, It. ([13]; 125 g ai/ha): 0 | Plant response rating, Ryegrass, It. ([13]; 500 g ai/ha): 0 | Plant response rating, Ragweed ([14]; 125 g ai/ha): 0 | Plant response rating, Ragweed ([14]; 500 g ai/ha): 0 | Plant response rating, Foxtail, Giant ([15]; 125 g ai/ha): 20 | Plant response rating, Foxtail, Giant ([15]; 500 g ai/ha): 80 | Plant response rating, Foxtail, Giant ([16]; 125 g ai/ha): 20 | Plant response rating, Foxtail, Giant ([16]; 500 g ai/ha): 80 | Plant response rating, Ducksalad [17]: 80 | Plant response rating, Kochia (kochia (Kochia scoparia) [18]; 125 g ai/ha): 0 | Plant response rating, Kochia (kochia (Kochia scoparia) [18]; 500 g ai/ha): 0

O=C1NCC(CCc2ccccc2)C1C(=O)Nc1cccc(F)c1F (stereo not drawn) [Compound 35, N-(2,3-difluorophenyl)-2-oxo-4-(2-phenylethyl)-3-pyrrolidinecarboxamide]
Plant response rating, Rice (rice (Oryza sativa)): 0 | Plant response rating, Sedge, Umbrella [1]: 0 | Plant response rating, Pigweed ([2]; 125 g ai/ha): 0 | Plant response rating, Pigweed ([2]; 500 g ai/ha): 0 | Plant response rating, Kochia (kochia (Kochia scoparia) [3]; 125 g ai/ha): 0 | Plant response rating, Kochia (kochia (Kochia scoparia) [3]; 500 g ai/ha): 0 | Plant response rating, Blackgrass ([4]; 125 g ai/ha): 0 | Plant response rating, Blackgrass ([4]; 500 g ai/ha): 0 | Plant response rating, Barnyardgrass ([5]; 125 g ai/ha): 0 | Plant response rating, Barnyardgrass ([5]; 500 g ai/ha): 30 | Plant response rating, Barnyardgrass [6]: 0 | Plant response rating, Wheat ([7]; 125 g ai/ha): 0 | Plant response rating, Wheat ([7]; 500 g ai/ha): 0 | Plant response rating, Galium ([8]; 125 g ai/ha): 0 | Plant response rating, Galium ([8]; 500 g ai/ha): 0 | Plant response rating, Ryegrass, It. ([9]; 125 g ai/ha): 0 | Plant response rating, Ryegrass, It. ([9]; 500 g ai/ha): 0 | Plant response rating, Pigweed ([10]; 125 g ai/ha): 0 | Plant response rating, Pigweed ([10]; 500 g ai/ha): 0 | Plant response rating, Barnyardgrass ([11]; 125 g ai/ha): 0 | Plant response rating, Barnyardgrass ([11]; 500 g ai/ha): 30 | Plant response rating, Ragweed ([12]; 125 g ai/ha): 0 | Plant response rating, Ragweed ([12]; 500 g ai/ha): 0 | Plant response rating, Corn (corn (Zea mays); 125 g ai/ha): 0 | Plant response rating, Corn (corn (Zea mays); 500 g ai/ha): 0 | Plant response rating, Ryegrass, It. ([13]; 125 g ai/ha): 0 | Plant response rating, Ryegrass, It. ([13]; 500 g ai/ha): 0 | Plant response rating, Ragweed ([14]; 125 g ai/ha): 0 | Plant response rating, Ragweed ([14]; 500 g ai/ha): 0 | Plant response rating, Foxtail, Giant ([15]; 125 g ai/ha): 0 | Plant response rating, Foxtail, Giant ([15]; 500 g ai/ha): 30 | Plant response rating, Foxtail, Giant ([16]; 125 g ai/ha): 0 | Plant response rating, Foxtail, Giant ([16]; 500 g ai/ha): 60 | Plant response rating, Ducksalad [17]: 70 | Plant response rating, Kochia (kochia (Kochia scoparia) [18]; 125 g ai/ha): 0 | Plant response rating, Kochia (kochia (Kochia scoparia) [18]; 500 g ai/ha): 50
